Read-outs that look alike come from different tables or passages of the source.
Legend:
[1] = molecular target: T1, hDP1 (Homo sapiens, UniProt Q13258); experiment: radioligand ([3H] Prostaglandin D2) competitive receptor binding assay, DP receptor affinity in vitro; conditions: Test Concentration 100 nM; [3H] PGD2 radioligand; read-out: Inhibition rate
T1 sequence (Q13258 1-359): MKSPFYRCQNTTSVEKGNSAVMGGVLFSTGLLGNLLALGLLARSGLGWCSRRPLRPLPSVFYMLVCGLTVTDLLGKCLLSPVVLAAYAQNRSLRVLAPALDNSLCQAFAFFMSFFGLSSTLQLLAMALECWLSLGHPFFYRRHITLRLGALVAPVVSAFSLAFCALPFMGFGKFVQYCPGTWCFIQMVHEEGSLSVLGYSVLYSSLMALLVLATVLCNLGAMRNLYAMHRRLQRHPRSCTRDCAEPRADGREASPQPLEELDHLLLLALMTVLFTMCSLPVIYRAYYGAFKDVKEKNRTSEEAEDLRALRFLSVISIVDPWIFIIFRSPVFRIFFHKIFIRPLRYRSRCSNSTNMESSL
Source text: Affinity Test of DP Receptor Target In Vitro.
The radioligand ([3H] Prostaglandin D2 (PGD2)) competitive receptor binding assay was used to evaluate the affinity of the test compound with the DP receptor.

[2] = test system: ADP-induced platelet aggregation; experiment: anti-platelet aggregation test in vitro (platelet-rich plasma, ADP inducer); assay type: cell-based, SD rats; conditions: for inhibition at 100 µM: Rattus norvegicus, Platelet, 10 min, after 10 minutes of incubation, read-out: inhibition rate on ADP-induced platelet aggregation; for onset of anti-platelet aggregation effect after addition to PRP: incubation 0 min onward, FIG. 1
Protocol: The Effect of the Prostaglandin E1 Methyl Ester of the Disclosure in the Anti-Platelet Aggregation Test In Vitro.
When healthy adult SD rats were anesthetized by intraperitoneal injection of 10% chloral hydrate, fresh whole blood was collected from the abdominal aorta and added to a centrifuge tube anticoagulated with 3.8% sodium citrate solution, and centrifuged at 900 rpm for 10 minutes to remove the upper platelet-rich plasma (PRP) for use. The tube having PRP removed was further centrifuged at 4000 rpm for 10 minutes, and the upper clarified plasma (PPP) was removed for use. In the experiment, Techlink model LBY-NJ4 4-channel platelet aggregator was used to determine the anticoagulant efficacy of each compound.
Into a sample cup containing 300 μL of PRP, 2 μL of 100 μM prostaglandin E1, prostaglandin E1 methyl ester of example 1, Compound 2 of Example 2 and methanol (solvent) were first added. After incubated for different periods (0, 1, 2, 4, 7, 10, 15 min), 20 μL of aggregation inducer 180 μM ADP solution was added. The aggregation rate of each sample was measured, and the inhibitory rate of the compound on ADP-induced platelet aggregation was calculated.
Inhibition rate %=(solvent aggregation rate−compound aggregation rate)/solvent aggregation rate×100%

[3] = test system: isolated rabbit blood vessels; experiment: vasodilation test in vitro, isolated aortic ring specimens; assay type: cell-based, New Zealand white rabbits; conditions: isolated rabbit thoracic aortic rings, cumulative addition 0.05-25.6 nM, read-out: diastolic efficacy EC50
Source text: The Effect of the Prostaglandin E1 Methyl Ester of the Disclosure in the Vasodilation Test In Vitro
In the experiment, rabbits were selected to prepare isolated aortic ring specimens: New Zealand white rabbits, male, weighing (2.5±0.3) kg. The rabbit was stunned with a blunt instrument, fixed on the rabbit dissecting table, and the thoracic aorta was quickly separated, and placed in a petri dish filled with saturated Kerbs solution (containing NaCl 6.9 g, KCl 0.35 g, MgSO4.7H2O 0.29 g, KH2PO4 0.16 g, NaHCO32.1 g, CaCl2) 0.28 g, glucose 2 g per 1000 mL) at 37° C. and continuously introduced with mixed gas (95% O2, 5% CO2). The remaining blood in the blood vessel was squeezed out, and the peripheral fat and connective tissue were carefully peeled off, and it was cut into 0.5 cm long arterial rings for use. […]
BL-420S biological function experiment system (Chengdu Techman Technology) was used to record the variation of vascular ring tension. After the vascular ring contraction was stable, prostaglandin E1 and the compounds of the Examples were accumulatively added to successively increase the final mass concentration of prostaglandin E1 in the bath tube to 0.05, 0.1, 0.2, 0.4, 0.8, 1.6, 3.2, 6.4, 12.8, 25.6 nM, and the diastolic efficacies of the vascular ring were recorded.

[4] = test system: human umbilical vein endothelial cells (HUVEC); experiment: HUVEC proliferation, MTT detection; assay type: cell-based; conditions: 1-100 nM, incubated 24 hours, compared with unmedicated wells
Protocol: Frozen human umbilical vein endothelial cells (HUVEC) were resuscitated and placed in low-sugar DMEM medium with 10% (V/V) FBS, and 100 U/L penicillin and 0.1 g/L streptomycin were added. It was cultured artificially in an environment of 5% CO2 and 95% air at a temperature of 37° C. A fresh medium was replaced every three days. When the cell density reached 70-80%, the digestion solution (0.25% trypsin/0.02EDTA) was used to harvest the cells. After the cells were resuspended, they were seeded in a 96-well plate with a density of 5×10^3 per well. After 1 day of culture, 1-100 nM of prostaglandin methyl ester was added and incubated for 24 hours for MTT detection.

[5] = test system: mouse scleroderma model; experiment: mouse scleroderma model (bleomycin subcutaneously); assay type: in vivo, Balb/c mice; conditions: for Skin thickness / Collagen content: osmotic pump 28 days; for Skin thickness: inferior vena cava; for Collagen content: skin
Protocol: Therapeutic Effect of Prostaglandin E1 Methyl Ester in Mouse Scleroderma Model In this experiment, 56 Balb/c mice weighing 22-25 g were randomly divided into 7 groups: normal group, model group, vehicle group, prostaglandin E1 high-dose group and prostaglandin E1 low-dose group, and prostaglandin E1 methyl ester high-dose group and prostaglandin E1 methyl ester low-dose group. Model preparation: the clothing hair on the central area of the mice was shaved, the normal group was injected with 0.1 ml PBS subcutaneously on the back, and the other groups were injected with 0.1 ml of 0.2 mg/ml bleomycin subcutaneously, once a day for three weeks. […] Prostaglandin E1 high and low-dose groups were loaded with 28 μg and 14 μg of drugs respectively; prostaglandin E1 methyl ester high and low-dose groups were also loaded with 28 μg and 14 μg of drugs respectively; solvent group was not loaded with drugs. […] The administration was started at the same time as the model was created. Index detection: After the administration, the animals were sacrificed, and skin and lung sections of the injection site were made, and HE stained. The histological changes were observed, and the skin (dermis) thickness was measured; and the photoelectric colorimetry was used to determine the content of hydroxyproline and protein in the skin to infer the content of collagen.

[6] = distribution in rat skin tissue (total radiation value); conditions: 200 μg [3H]-labelled drug via osmotic pump over 3 days, inferior vena cava
Protocol: Distribution of Prostaglandin E1 Methyl Ester in Rat Skin Tissue
In this experiment, 12 male SD rats weighing 250-280 g were randomly divided into two groups (n=6): prostaglandin E1 group and prostaglandin E1 methyl ester group. Osmotic pumps (model 1003D, ALZA Corporation, Canada) containing 100 μl of drug in DMSO were used. The drug was released at a constant rate, and the drug release cycle was 3 days. They were loaded with 200 μg of [^3H] prostaglandin E1 and [^3H] prostaglandin E1 methyl ester respectively. […] After the administration, the animals were sacrificed, skin tissues were taken (the same position for each animal), weighed, and the total radiation value was measured.

[7] = 2 μL of 100 μM compound in 300 μL PRP

EC50 [3] [nM]	Skin tissue concentration [6]	Compound	inhibition at 0.1 µM [1] [%]	inhibition at 100 µM [2, 7] [%]	duration of anticoagulant effect relative to prostaglandin E1 ([2]; compared with prostaglandin E1) [times]	onset of anti-platelet aggregation effect after addition to PRP [2]	EC50 ([3]; Oryctolagus cuniculus) [nM]	proliferation of vascular endothelial cells [4]	lung tissue histology (alveolar septum thickening, inflammatory cell infiltration) ([5]; HE stained lung sections, compared with prostaglandin E1 group)	Skin thickness ([5]; high-dose 1 ug/day) [μm]	Collagen content ([5]; high-dose 1 ug/day) [mg/L]	Skin thickness ([5]; low-dose 0.5 ug/day) [μm]	Collagen content ([5]; low-dose 0.5 ug/day) [mg/L]	inhibition rate on ADP-induced platelet aggregation ([2]; after 4 minutes of incubation, 2 μL of 100 μM compound in 300 μL PRP) [%]
–	–	CCCCCC(O)/C=C/C1C(O)CC(=O)C1CCCCCCC(=O)OC (stereo not drawn) [prostaglandin E1 methyl ester]	78	43.7	2	take effect immediately	1.09	significant effect of promoting the proliferation of vascular endothelial cells	slightly better than the prostaglandin E1 group	21.35 ± 2.11	467.52 ± 141.08	24.66 ± 2.54	588.62 ± 127.41	–
–	–	CCCCC[C@H](O)/C=C/[C@H]1[C@H](O)CC(=O)[C@@H]1CCCCCCC(=O)OCC [Compound 2]	–	51.9	–	does not take effect immediately	–	–	–	–	–	–	–	–
9.77	45.1 ± 7.5 ng (radiatione quivalent)/g	CCCCC[C@H](O)/C=C/[C@H]1[C@H](O)CC(=O)[C@@H]1CCCCCCC(=O)O [prostaglandin E1, Prostaglandin E1]	–	–	–	take effect immediately	–	–	–	29.12 ± 2.46	879.66 ± 128.92	32.59 ± 3.03	947.99 ± 214.86	4.93

Reference: patent publication US20220008437A1, “Use of prostaglandin E1 methyl ester in manufacture of vasodilator” (XI'AN LIBANG ZHAOXIN BIOTECHNOLOGY CO., LTD., priority 2018, published 2022)
